What was measured:
Format in all cases: in vivo, human
FUT7 = assay: Chemoresponse prediction: Cox proportional hazard model using FUT7 ΔCt values in qRT-PCR assays of NSCLC patients
Method: Patient samples. All NSCLC patients were staged I, II, or IIIA at the time of diagnosis. Tumor tissues were collected in surgical resections and were snap-frozen at −80° C. until used for RNA extraction. Tumor cell content was above 50% for qRT-PCR assays. Those with missing AJCC staging information, missing histology, death within 30 days of resection or from other disease conditions were excluded from further analysis. A total of 122 NSCLC patient samples were obtained from Case Western Reserve University (CWRU) Comprehensive Cancer Center. Total RNA of good quality was extracted from 89 tumor specimens. […]
(§1) RNA extraction, and quality and concentration assessments. […] The quality and integrity of the RNA, the 28S to 18S ratio, and a visual image of the 28S and 18S bands were evaluated on the 2100 Bioanalyzer (Agilent Technologies, CA). RNA assessed as having good quality from 304 tumor samples was included for further analysis. The RNA concentration of each sample was assessed using a Nanodrop-1000 Spectrophotometer (NanoDrop Tech, Germany). […]
(§2) Real-time quantitative RT-PCR low-density arrays. […]
Three hundred thirty seven (337) tumor samples were analyzed with good RNA quality using TaqMan microfluidic low-density array (LDA) plates on an ABI 7900HT Fast RT-PCR instrument (Applied Biosystems). Total RNA samples were analyzed on an Agilent 2100 Bioanalyzer RNA 6000 Nano LabChip. […]

SLC39A8 = assay: Chemoresponse prediction: Cox proportional hazard model using SLC39A8 ΔCt values in qRT-PCR assays of NSCLC patients; details: prediction by high SLC39A8 expression
Method: (§3) Patient samples. All NSCLC patients were staged I, II, or IIIA at the time of diagnosis. Tumor tissues were collected in surgical resections and were snap-frozen at −80° C. until used for RNA extraction. Tumor cell content was above 50% for qRT-PCR assays. Those with missing AJCC staging information, missing histology, death within 30 days of resection or from other disease conditions were excluded from further analysis. A total of 122 NSCLC patient samples were obtained from Case Western Reserve University (CWRU) Comprehensive Cancer Center. […] The tissue collection in this study was approved by an Institutional Review Board (IRB) at each institution.
as §1, with “RNA assessed as having good quality from 304 tumor samples was included for further analysis.” left out
as §2
(§4) Three hundred thirty seven (337) tumor samples were analyzed with good RNA quality using TaqMan microfluidic low-density array (LDA) plates on an ABI 7900HT Fast RT-PCR instrument (Applied Biosystems).

ABCC4 = assay: Chemoresponse prediction: Cox proportional hazard model using ABCC4 ΔCt values in qRT-PCR assays of NSCLC patients
Method: as §3
RNA extraction, and quality and concentration assessments. Total RNA was extracted from snap-frozen tumor tissues using a RNeasy mini kit according the manufacturer's protocol (Qiagen, USA), followed by elution in 30 μl of RNase-free water and storage at −80° C. The quality and integrity of the RNA, the 28S to 18S ratio, and a visual image of the 28S and 18S bands were evaluated on the 2100 Bioanalyzer (Agilent Technologies, CA). […] The RNA concentration of each sample was assessed using a Nanodrop-1000 Spectrophotometer (NanoDrop Tech, Germany).
Generation of complementary DNA (cDNA). The reverse transcriptase polymerase chain reaction was used to convert the high-quality single-stranded RNA samples to double-stranded cDNA, using an Applied Biosystems GeneAmp® PCR 9700 machine (Foster City, Calif.). For standardization across all samples, one microgram of RNA was used to generate cDNA.
Real-time quantitative RT-PCR low-density arrays. Real-time qRT-PCR assays of independent patient cohorts of NSCLC tumor samples were used to further select biomarkers to form a multi-gene assay from prognostic genes identified from microarray data in our previous studies.
as §4

[1] = ABCC4 ΔCt as covariate, Cox model, NSCLC patients treated with the named agent(s)

SMILES | Hazard ratio of death from disease with 95% CI (FUT7; FUT7 ΔCt as covariate, Cox model, NSCLC patients treated with the named agent) | Chemosensitive/resistant (FUT7; prediction by high FUT7 expression) | Chemosensitive/resistant (SLC39A8) | Hazard ratio of death from disease with 95% CI (ABCC4; [1]) | Hazard ratio of recurrence with 95% CI (ABCC4; [1]) | Chemosensitive/resistant (ABCC4; prediction by high ABCC4 expression, patients treated with the named agent(s))
N.N.O=C([O-])C1(C(=O)[O-])CCC1.[Pt+2] [Carboplatin, carboplatin] | 1.605 | Chemosensitive | – | – | – | –
CC(=O)O[C@H]1C(=O)[C@@]2(C)[C@H]([C@H](OC(=O)c3ccccc3)[C@]3(O)C[C@H](OC(=O)[C@H](O)[C@@H](NC(=O)c4ccccc4)c4ccccc4)C(C)=C1C3(C)C)[C@]1(OC(C)=O)CO[C@@H]1C[C@@H]2O [Taxol, paclitaxel] | – | – | Chemoresistant | 0.403 | 0.48 | Chemoresistant
Nc1nc2[nH]cc(CCc3ccc(C(=O)N[C@@H](CCC(=O)O)C(=O)O)cc3)c2c(=O)[nH]1 [Alimta, pemetrexed] | – | – | Chemoresistant | – | – | –
